Measured values taken from patent US20250154140A1 (Sunnybrook Research Institute, priority 2022, published 2025).

Assays:
BAX = BAX (Homo sapiens, UniProt Q07812); experiment: Permeabilization of isolated mitochondria, Smac-mCherry release (cBID activated BAX); format: biochemical, mouse; parameters: made in house; host or cells: Escherichia coli BL21-AI; conditions: concentrations up to 60 uM
Description: Animal breeding and handling was performed in accordance with local regulations after approval by the Animal Care Committee at Sunnybrook Research Institute, Toronto. The isolation of mouse-liver mitochondria, and use with Bcl-2 family proteins to measure activity and protein-protein interactions was previously described in detail (Pogmore et al., 2016). In mouse liver, BAX is either cytoplasmic or loosely bound to mitochondria. Therefore, BAX is not present in isolated mitochondria. For this reason, when mitochondria are isolated from liver from BAK−/− mice they contain neither BAX or BAK. […] The supernatant was discarded, and the remaining pellet is resuspended in regeneration buffer (300 mM Trehalose, 10 mM HEPES-KOH pH 7.7, 80 mM KCl, 1 mM EGTA, 1 mM EDTA, 0.1% BSA, 5 mM succinate, 2 mM ATP, 10 μM phosphocreatine, and 10 μg/mL creatine kinase) at a protein concentration of 1 mg/mL, (determined by Bradford assay) for immediate use as the source of membranes for FRET measurements. […]
For BAX^−/−/BAK^−/−BMK SMAC-mCherry mitochondria, 2 nM cBID and 20 nM BAX was used to fully permeabilize the mitochondria. […] The percentage of SMAC-mCherry release was determined by fluorometric analysis of the supernatant and pellet fractions by measuring the fluorescence intensity (F) of mCherry (excitation 580, emission 610 in a Tecan M1000).

BAK = target: T1, BAK (Mus musculus, UniProt O08734); experiment: Permeabilization of isolated mitochondria, Smac-mCherry release (BIM activated BAK); format: biochemical; conditions: concentrations up to 60 uM
T1 construct: endogenous in cells; host or cells: heavy membranes (mitochondria) of BAX-/- baby mouse kidney cells expressing Smac-mCherry
T1 sequence (O08734 2-209 limits assumed): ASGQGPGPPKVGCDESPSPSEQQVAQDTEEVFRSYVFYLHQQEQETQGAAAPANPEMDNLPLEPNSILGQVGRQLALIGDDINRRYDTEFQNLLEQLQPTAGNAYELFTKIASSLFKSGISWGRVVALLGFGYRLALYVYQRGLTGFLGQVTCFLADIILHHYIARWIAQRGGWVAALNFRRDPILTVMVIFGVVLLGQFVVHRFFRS

Chain of BAX (Q07812 whole entry): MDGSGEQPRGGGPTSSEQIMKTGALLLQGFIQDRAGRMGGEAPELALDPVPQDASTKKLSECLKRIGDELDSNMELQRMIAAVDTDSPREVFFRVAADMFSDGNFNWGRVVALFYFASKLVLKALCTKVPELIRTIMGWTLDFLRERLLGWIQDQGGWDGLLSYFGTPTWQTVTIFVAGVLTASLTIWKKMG

Row | SMILES | inhibition of BAX mediated permeabilization of mitochondria (BAX) | inhibition of BAK mediated permeabilization of mitochondria (BAK)
1 | COc1cc2ccnc(Nc3ccc(F)c(Cl)c3)c2cc1NC(=O)CCCN1CCCCC1 [Compound I-1, N-(1-((3-chloro-4-fluorophenyl)amino)-6-methoxyisoquinolin-7-yl)-4-(piperidin-1-yl)butanamide] | equally effective inhibitors | equally effective inhibitors
2 | COc1cc2ncnc(Nc3ccc(F)c(Cl)c3)c2cc1NC(=O)/C=C/CN1CCCCC1 [Dacomitinib, reference compound] | equally effective inhibitors | equally effective inhibitors
